Source: ChEMBL document CHEMBL5385915 (J Med Chem, 2024)
The source made the active and inactive calls. No cut-off for these calls is given here.

Key:
[1] = system: Mycobacterium tuberculosis variant bovis; experiment: Downregulation of acpM gene expression in Mycobacterium bovis BCG at 1 times MIC incubated for 8 hrs by RNA-sequencing analysis; format: functional
[2] = system: Mycobacterium tuberculosis variant bovis; experiment: Upregulation of ideR gene expression in Mycobacterium bovis BCG at 1 times MIC incubated for 8 hrs by RNA-sequencing analysis; format: functional
[3] = system: Mycobacterium tuberculosis variant bovis; experiment: Downregulation of fbpD gene expression in Mycobacterium bovis BCG at 1 times MIC incubated for 8 hrs by RNA-sequencing analysis; format: functional
[4] = system: Mycobacterium tuberculosis variant bovis; experiment: Upregulation of mmpL5 gene expression in Mycobacterium bovis BCG at 1 times MIC incubated for 8 hrs by RNA-sequencing analysis; format: functional
[5] = system: Mycobacterium tuberculosis variant bovis; experiment: Downregulation of mmaA3 gene expression in Mycobacterium bovis BCG at 1 times MIC incubated for 8 hrs by RNA-sequencing analysis; format: functional
[6] = system: Mycobacterium tuberculosis variant bovis BCG; experiment: Inhibition of cell wall biosynthesis in Mycobacterium bovis BCG assessed as reduction in trehalose monomycolate accumulation at 0.5 times MIC incubated for 12 hrs in presence of [14C]acetate by TLC based autoradiography analysis; format: functional, organism-based
[7] = system: Mycobacterium tuberculosis variant bovis; experiment: Effect on ctaC-E gene expression in Mycobacterium bovis BCG at 1 times MIC incubated for 8 hrs by RNA-sequencing analysis; format: functional
[8] = system: Mycobacterium tuberculosis variant bovis; experiment: Effect on qcrA-C gene expression in Mycobacterium bovis BCG at 1 times MIC incubated for 8 hrs by RNA-sequencing analysis; format: functional
[9] = system: Mycobacterium tuberculosis variant bovis BCG; experiment: Inhibition of mycolic acid biosynthesis in Mycobacterium bovis BCG assessed as decrease in alpha mycolic acid transfer onto cell wall arabinogalactan at 0.5 times MIC incubated for 12 hrs in presence of [14C]acetate by TLC based autoradiography analysis; format: functional, organism-based
[10] = system: Mycobacterium tuberculosis variant bovis; experiment: Downregulation of inhA gene expression in Mycobacterium bovis BCG at 1 times MIC incubated for 8 hrs by RNA-sequencing analysis; format: functional
[11] = system: Mycobacterium tuberculosis variant bovis; experiment: Effect on cydA-D gene expression in Mycobacterium bovis BCG at 1 times MIC incubated for 8 hrs by RNA-sequencing analysis; format: functional
[12] = system: Mycobacterium tuberculosis variant bovis; experiment: Downregulation of mmaA2 gene expression in Mycobacterium bovis BCG at 1 times MIC incubated for 8 hrs by RNA-sequencing analysis; format: functional
[13] = system: Mycobacterium tuberculosis variant bovis; experiment: Upregulation of tcrYX gene expression in Mycobacterium bovis BCG at 1 times MIC incubated for 8 hrs by RNA-sequencing analysis; format: functional
[14] = system: Mycobacterium tuberculosis variant bovis; experiment: Downregulation of fabG1 gene expression in Mycobacterium bovis BCG at 1 times MIC incubated for 8 hrs by RNA-sequencing analysis; format: functional
[15] = system: Mycobacterium tuberculosis variant bovis; experiment: Downregulation of hadA gene expression in Mycobacterium bovis BCG at 1 times MIC incubated for 8 hrs by RNA-sequencing analysis; format: functional
[16] = system: Mycobacterium tuberculosis variant bovis; experiment: Upregulation of zur gene expression in Mycobacterium bovis BCG at 1 times MIC incubated for 8 hrs by RNA-sequencing analysis; format: functional
[17] = system: Mycobacterium tuberculosis variant bovis; experiment: Upregulation of mbtB gene expression in Mycobacterium bovis BCG at 1 times MIC incubated for 8 hrs by RNA-sequencing analysis; format: functional
[18] = system: Mycobacterium tuberculosis variant bovis; experiment: Upregulation of mmpS5 gene expression in Mycobacterium bovis BCG at 1 times MIC incubated for 8 hrs by RNA-sequencing analysis; format: functional
[19] = system: Mycobacterium tuberculosis variant bovis BCG; experiment: Inhibition of late-stage mycolic acid biosynthesis in Mycobacterium bovis BCG at 5 times MIC incubated for 6 hrs by TLC based autoradiography analysis; format: functional, organism-based
[20] = system: Mycobacterium tuberculosis variant bovis; experiment: Effect on narG-J gene expression in Mycobacterium bovis BCG at 1 times MIC incubated for 8 hrs by RNA-sequencing analysis; format: functional
[21] = system: Mycobacterium tuberculosis variant bovis; experiment: Upregulation of mbtC gene expression in Mycobacterium bovis BCG at 1 times MIC incubated for 8 hrs by RNA-sequencing analysis; format: functional
[22] = system: Mycobacterium tuberculosis variant bovis BCG; experiment: Inhibition of cell wall biosynthesis in Mycobacterium bovis BCG assessed as formation of cytoplasmic membrane phospholipids at 0.5 times MIC incubated for 12 hrs in presence of [14C]acetate by TLC based autoradiography analysis; format: functional, organism-based
[23] = system: Mycobacterium tuberculosis variant bovis; experiment: Upregulation of cmtR gene expression in Mycobacterium bovis BCG at 1 times MIC incubated for 8 hrs by RNA-sequencing analysis; format: functional
[24] = system: Mycobacterium tuberculosis variant bovis; experiment: Upregulation of mbtD gene expression in Mycobacterium bovis BCG at 1 times MIC incubated for 8 hrs by RNA-sequencing analysis; format: functional
[25] = system: Mycobacterium tuberculosis variant bovis; experiment: Downregulation of fbpA gene expression in Mycobacterium bovis BCG at 1 times MIC incubated for 8 hrs by RNA-sequencing analysis; format: functional
[26] = system: Mycobacterium tuberculosis variant bovis BCG; experiment: Inhibition of mycolic acid biosynthesis in Mycobacterium bovis BCG assessed as decrease in keto mycolic acid transfer onto cell wall arabinogalactan at 0.5 times MIC incubated for 12 hrs in presence of [14C]acetate by TLC based autoradiography analysis; format: functional, organism-based
[27] = system: Mycobacterium tuberculosis variant bovis BCG; experiment: Inhibition of cell wall biosynthesis in Mycobacterium bovis BCG assessed as reduction in trehalose dimycolate accumulation at 0.5 times MIC incubated for 12 hrs in presence of [14C]acetate by TLC based autoradiography analysis; format: functional, organism-based
[28] = system: Mycobacterium tuberculosis variant bovis; experiment: Effect on nuoA-N gene expression in Mycobacterium bovis BCG at 1 times MIC incubated for 8 hrs by RNA-sequencing analysis; format: functional
[29] = system: Mycobacterium tuberculosis variant bovis; experiment: Downregulation of desA2 gene expression in Mycobacterium bovis BCG at 1 times MIC incubated for 8 hrs by RNA-sequencing analysis; format: functional

With `CNC[C@@H]1C[C@H](c2ccc(OC(F)(F)F)cc2)N1Cc1ccccc1OC(F)(F)F` (racemic) the Activity [1] was “Active”, the Activity [2] was “Active” and the Activity [3] was “Active”. For the same compound, the Activity [4] was “Active”, the Activity [5] was “Active” and the inhibition [6] was “Active”. The Activity [7] was “Active”, the Activity [8] was “Active” and the inhibition [9] was “Active”. The Activity [10] was “Active”, the Activity [11] was “Active” and the Activity [12] was “Active”. The Activity [13] was “Active”, the Activity [14] was “Active” and the Activity [15] was “Active”. The Activity [16] was “Active”, the Activity [17] was “Active” and the Activity [18] was “Active”. For the same compound, the inhibition [19] was “Active”, the Activity [20] was “Active” and the Activity [21] was “Active”. The inhibition [22] was “inactive”, the Activity [23] was “Active” and the Activity [24] was “Active”. The Activity [25] was “Active”, the inhibition [26] was “Active” and the inhibition [27] was “Active”. The Activity [28] was “Active” and the Activity [29] was “Active”.

With `Brc1cc(Br)cc([C@H]2C[C@@H](CN3CCCC3)N2Cc2ccccc2Br)c1` (racemic) the inhibition [19] was “Active”.
